Measurements as given in patent US9624269B2, “Peptide inhibitors of BACE1” (GENENTECH, INC., priority 2011, dated 2017).

Tests used:
Test in all cases: Biotinylated BACE020 peptide binding ELISA
[1] = biological target: T1, human BACE1 ECD mutant T133A (72) (Homo sapiens, UniProt P56817, T133A)
T1 construct: extracellular domain (ECD) (residues 22-457) and a C-terminal His8 tag; made in house; host or cells: Chinese hamster ovary cells (transient)
From the text: (§1) Human BACE1 mutants were made in a pRK vector containing the BACE 1 signal peptide followed by its extracellular domain (ECD) (residues 22-457) and a C-terminal His8 tag (SEQ ID NO: 54). Mutations were made using the appropriate oligonucleotide using a QuikChange® II XL Site-Directed Mutagenesis kit (Agilent Technologies Stratagene Products, La Jolla, Calif.) and confirmed by DNA sequencing. Proteins were expressed transiently using Chinese hamster ovary cells growing in 1-liter fermenters and cultures were harvested after 2 weeks. Following centrifugation, mutant proteins from the medium were purified to homogeneity (>95% purity) by chromatography on Ni-NTA agarose (Qiagen, Valencia, Calif.). After washing with PBS containing 10 mM imidazole, proteins were eluted with PBS containing 200 mM imidazole and the eluate was pooled, concentrated using a Vivaspin 20 (Sartorius-stedim, Goettingen, Germany) and applied to a Superdex 200 10/300 GL column (GE Healthcare Bio-Sciences AB, Uppsala, Sweden) equilibrated in 20 mM HEPES pH 7.2, 150 mM NaCl. Protein peaks were collected, concentrated and protein concentration determined by A280.
(§2) Binding of biotinylated BACE020 to recombinant protein was determined by a 96-well plate assay. Maxisorp microtiter plates (Nalge Nunc International, Rochester, N.Y.) were coated overnight at 4° C. with 2 μg/ml BACE 1 mutant in 50 mM carbonate, pH 9.6. The coated wells were washed with buffer (PBS, 0.05% Polysorbate 20) and blocked with assay buffer (PBS, pH 7.4, 0.5% BSA, 0.05% Tween 20, 15 ppm Proclin) for 1 h at room temperature with gentle shaking. After blocking, various concentrations of C-terminal biotin tagged BACE020 peptide with a polyethylene glycol (PEG) spacer (Ac-[…]-(PEG)3-biotin (SEQ ID NO: 16); Ac-[…]-CONH—CH2—(CH2—CH2—O—)3—(CH2)3—NH-biotin (SEQ ID NO: 16)) diluted in assay buffer were added and plates were incubated for 1 h with gentle shaking at room temperature. After washing, the amount of peptide bound to the plate was detected by the addition of Streptavidin-Horseradish Peroxidase Conjugate (GE Healthcare, Piscataway, N.J.) followed by the addition of TMB/H2O2 substrate (KPL, Gaithersburg, Md.). The reaction was quenched with 1 M phosphoric acid and the A450 measured on a Molecular Devices SpectraMax Plus384 microplate reader. Concentrations to give half maximal effective concentration (EC50) were determined using a 4-parameter non-linear regression curve-fitting program with Kaleidagraph (Synergy Software, Reading, Pa.). […] Concentrations to give half maximal inhibition concentration (IC50) were determined using a 4-parameter non-linear regression curve-fitting program with Kaleidagraph.
(§3) The ability of biotinylated BACE020 to bind to BACE1 and mutants was determined using an ELISA assay. The fold decrease in binding affinity was determined as the relative EC50 values of EC50 (mut)/EC50 (WT), which are listed in Table 3.

[2] = biological target: T2, human BACE1 ECD mutant G72A (11) (Homo sapiens, UniProt P56817, G72A)
T2 construct: extracellular domain (ECD) (residues 22-457) and a C-terminal His8 tag; made in house; host or cells: Chinese hamster ovary cells (transient)
T2 sequence (P56817 22-457 G72A): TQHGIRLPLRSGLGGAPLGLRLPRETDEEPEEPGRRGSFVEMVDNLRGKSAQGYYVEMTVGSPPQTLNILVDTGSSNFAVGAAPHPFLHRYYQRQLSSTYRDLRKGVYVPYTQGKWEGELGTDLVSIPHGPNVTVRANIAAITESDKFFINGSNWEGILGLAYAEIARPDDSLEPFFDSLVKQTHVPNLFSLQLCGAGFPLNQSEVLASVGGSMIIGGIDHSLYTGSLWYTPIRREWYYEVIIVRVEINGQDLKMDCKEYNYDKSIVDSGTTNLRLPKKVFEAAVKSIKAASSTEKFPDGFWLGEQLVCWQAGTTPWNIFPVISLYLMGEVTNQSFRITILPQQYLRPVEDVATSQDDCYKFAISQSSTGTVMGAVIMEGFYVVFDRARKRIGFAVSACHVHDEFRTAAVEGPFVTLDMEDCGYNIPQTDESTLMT
From the text: as §1, §2, §3

[3] = biological target: T3, human BACE1 ECD mutant K285A (224) (Homo sapiens, UniProt P56817, K285A)
T3 construct: extracellular domain (ECD) (residues 22-457) and a C-terminal His8 tag; made in house; host or cells: Chinese hamster ovary cells (transient)
T3 sequence (P56817 22-457 K285A): as the sequence (P56817 22-457 G72A) above, with A51G, K264A counted along it
From the text: as §1, §2, §3

[4] = biological target: T4, human BACE1 ECD mutant F169A (108) (Homo sapiens, UniProt P56817, F169A)
T4 construct: extracellular domain (ECD) (residues 22-457) and a C-terminal His8 tag; made in house; host or cells: Chinese hamster ovary cells (transient)
T4 sequence (P56817 22-457 F169A): as the sequence (P56817 22-457 G72A) above, with A51G, F148A counted along it
From the text: as §1, §2, §3

[5] = biological target: T5, human BACE1 ECD mutant K382A (321) (Homo sapiens, UniProt P56817, K382A)
T5 construct: its extracellular domain (ECD) (residues 22-457) and a C-terminal His8 tag; His8 (C); made in house; host or cells: Chinese hamster ovary cells (transient, secreted)
T5 sequence (P56817 22-457 K382A): as the sequence (P56817 22-457 G72A) above, with A51G, K361A counted along it
From the text: as §1, §2, §3

[6] = biological target: T6, human BACE1 ECD mutant D93A (32) (Homo sapiens, UniProt P56817, D93A)
T6 construct: extracellular domain (ECD) (residues 22-457) and a C-terminal His8 tag; made in house; host or cells: Chinese hamster ovary cells (transient)
T6 sequence (P56817 22-457 D93A): as the sequence (P56817 22-457 G72A) above, with A51G, D72A counted along it
From the text: as §1, §2, §3

[7] = biological target: T7, human BACE1 ECD mutant T292A (231) (Homo sapiens, UniProt P56817, T292A)
T7 construct: its extracellular domain (ECD) (residues 22-457) and a C-terminal His8 tag; His8 (C); made in house; host or cells: Chinese hamster ovary cells (transient, secreted)
T7 sequence (P56817 22-457 T292A): as the sequence (P56817 22-457 G72A) above, with A51G, T271A counted along it
From the text: as §1, §2, §3

[8] = biological target: T8, human BACE1 ECD mutant Q73A (12) (Homo sapiens, UniProt P56817, Q73A)
T8 construct: extracellular domain (ECD) (residues 22-457) and a C-terminal His8 tag; made in house; host or cells: Chinese hamster ovary cells (transient)
T8 sequence (P56817 22-457 Q73A): as the sequence (P56817 22-457 G72A) above, with A51G, Q52A counted along it
From the text: as §1, §2, §3

[9] = biological target: T9, human BACE1 ECD mutant N294A (233) (Homo sapiens, UniProt P56817, N294A)
T9 construct: its extracellular domain (ECD) (residues 22-457) and a C-terminal His8 tag; His8 (C); made in house; host or cells: Chinese hamster ovary cells (transient, secreted)
T9 sequence (P56817 22-457 N294A): as the sequence (P56817 22-457 G72A) above, with A51G, N273A counted along it
From the text: as §1, §2, §3

[10] = biological target: T10, human BACE1 ECD mutant G291A (230) (Homo sapiens, UniProt P56817, G291A)
T10 construct: its extracellular domain (ECD) (residues 22-457) and a C-terminal His8 tag; His8 (C); made in house; host or cells: Chinese hamster ovary cells (transient, secreted)
T10 sequence (P56817 22-457 G291A): as the sequence (P56817 22-457 G72A) above, with A51G, G270A counted along it
From the text: as §1, §2, §3

[11] = biological target: T11, human BACE1 ECD mutant 1I79A (118) (Homo sapiens, UniProt P56817, I179A)
T11 construct: extracellular domain (ECD) (residues 22-457) and a C-terminal His8 tag; made in house; host or cells: Chinese hamster ovary cells (transient)
T11 sequence (P56817 22-457 I179A): as the sequence (P56817 22-457 G72A) above, with A51G, I158A counted along it
From the text: as §1, §2, §3

[12] = biological target: T12, human BACE1 ECD mutant Q134A (73) (Homo sapiens, UniProt P56817, Q134A)
T12 construct: extracellular domain (ECD) (residues 22-457) and a C-terminal His8 tag; made in house; host or cells: Chinese hamster ovary cells (transient)
T12 sequence (P56817 22-457 Q134A): as the sequence (P56817 22-457 G72A) above, with A51G, Q113A counted along it
From the text: as §1, §2, §3

[13] = biological target: T13, human BACE1 ECD mutant R189A (128) (Homo sapiens, UniProt P56817, R189A)
T13 construct: extracellular domain (ECD) (residues 22-457) and a C-terminal His8 tag; made in house; host or cells: Chinese hamster ovary cells (transient)
T13 sequence (P56817 22-457 R189A): as the sequence (P56817 22-457 G72A) above, with A51G, R168A counted along it
From the text: as §1, §2, §3

[14] = biological target: T14, human BACE1 ECD mutant D289A (228) (Homo sapiens, UniProt P56817, D289A)
T14 construct: extracellular domain (ECD) (residues 22-457) and a C-terminal His8 tag; made in house; host or cells: Chinese hamster ovary cells (transient)
T14 sequence (P56817 22-457 D289A): as the sequence (P56817 22-457 G72A) above, with A51G, D268A counted along it
From the text: as §1, §2, §3

[15] = biological target: T15, human BACE1 ECD mutant W176A (115) (Homo sapiens, UniProt P56817, W176A)
T15 construct: extracellular domain (ECD) (residues 22-457) and a C-terminal His8 tag; made in house; host or cells: Chinese hamster ovary cells (transient)
T15 sequence (P56817 22-457 W176A): as the sequence (P56817 22-457 G72A) above, with A51G, W155A counted along it
From the text: as §1, §2, §3

[16] = biological target: T16, human BACE1 ECD mutant I171A (110) (Homo sapiens, UniProt P56817, I171A)
T16 construct: extracellular domain (ECD) (residues 22-457) and a C-terminal His8 tag; made in house; host or cells: Chinese hamster ovary cells (transient)
T16 sequence (P56817 22-457 I171A): as the sequence (P56817 22-457 G72A) above, with A51G, I150A counted along it
From the text: as §1, §2, §3

[17] = biological target: T17, human BACE1 ECD mutant Y132A (71) (Homo sapiens, UniProt P56817, Y132A)
T17 construct: extracellular domain (ECD) (residues 22-457) and a C-terminal His8 tag; made in house; host or cells: Chinese hamster ovary cells (transient)
T17 sequence (P56817 22-457 Y132A): as the sequence (P56817 22-457 G72A) above, with A51G, Y111A counted along it
From the text: as §1, §2, §3

[18] = biological target: T18, human BACE1 ECD mutant R296A (235) (Homo sapiens, UniProt P56817, R296A)
T18 construct: its extracellular domain (ECD) (residues 22-457) and a C-terminal His8 tag; His8 (C); made in house; host or cells: Chinese hamster ovary cells (transient, secreted)
T18 sequence (P56817 22-457 R296A): as the sequence (P56817 22-457 G72A) above, with A51G, R275A counted along it
From the text: as §1, §2, §3

[19] = biological target: T19, human BACE1 ECD mutant S96A (35) (Homo sapiens, UniProt P56817, S96A)
T19 construct: extracellular domain (ECD) (residues 22-457) and a C-terminal His8 tag; made in house; host or cells: Chinese hamster ovary cells (transient)
T19 sequence (P56817 22-457 S96A): as the sequence (P56817 22-457 G72A) above, with A51G, S75A counted along it
From the text: as §1, §2, §3

[20] = biological target: T20, human BACE1 ECD mutant T293A (232) (Homo sapiens, UniProt P56817, T293A)
T20 construct: its extracellular domain (ECD) (residues 22-457) and a C-terminal His8 tag; His8 (C); made in house; host or cells: Chinese hamster ovary cells (transient, secreted)
T20 sequence (P56817 22-457 T293A): as the sequence (P56817 22-457 G72A) above, with A51G, T272A counted along it
From the text: as §1, §2, §3

[21] = biological target: T21, human BACE1 ECD mutant T390A (329) (Homo sapiens, UniProt P56817, T390A)
T21 construct: its extracellular domain (ECD) (residues 22-457) and a C-terminal His8 tag; His8 (C); made in house; host or cells: Chinese hamster ovary cells (transient, secreted)
T21 sequence (P56817 22-457 T390A): as the sequence (P56817 22-457 G72A) above, with A51G, T369A counted along it
From the text: as §1, §2, §3

[22] = biological target: T22, human BACE1 ECD mutant L91A (30) (Homo sapiens, UniProt P56817, L91A)
T22 construct: extracellular domain (ECD) (residues 22-457) and a C-terminal His8 tag; made in house; host or cells: Chinese hamster ovary cells (transient)
T22 sequence (P56817 22-457 L91A): as the sequence (P56817 22-457 G72A) above, with A51G, L70A counted along it
From the text: as §1, §2, §3

[23] = biological target: T23, human BACE1 ECD mutant G74A (13) (Homo sapiens, UniProt P56817, G74A)
T23 construct: extracellular domain (ECD) (residues 22-457) and a C-terminal His8 tag; made in house; host or cells: Chinese hamster ovary cells (transient)
T23 sequence (P56817 22-457 G74A): as the sequence (P56817 22-457 G72A) above, with A51G, G53A counted along it
From the text: as §1, §2, §3

human BACE1 ECD WT = biological target: T24, human BACE1 ECD WT (Homo sapiens, UniProt P56817)
T24 construct: extracellular domain (ECD) (residues 22-457) and a C-terminal His8 tag; made in house; host or cells: Chinese hamster ovary cells (transient)
T24 sequence (P56817 22-457): as the sequence (P56817 22-457 G72A) above, with A51G counted along it
From the text: as §1, §2, §3

[24] = biological target: T25, human BACE1 ECD mutant K168A (107) (Homo sapiens, UniProt P56817, K168A)
T25 construct: extracellular domain (ECD) (residues 22-457) and a C-terminal His8 tag; made in house; host or cells: Chinese hamster ovary cells (transient)
T25 sequence (P56817 22-457 K168A): as the sequence (P56817 22-457 G72A) above, with A51G, K147A counted along it
From the text: as §1, §2, §3

T1 sequence (P56817 22-457 T133A): as the sequence (P56817 22-457 G72A) above, with A51G, T112A counted along it

Substance: Ac-NEESMYCRLLGIGCG-(PEG)3-biotin [Biotinylated BACE020]
- Fold Decrease in Binding EC50 (Mut)/EC50 (WT) [1]: 1.1
- Fold Decrease in Binding EC50 (Mut)/EC50 (WT) [2]: 6.5
- Fold Decrease in Binding EC50 (Mut)/EC50 (WT) [3]: 4.0
- Fold Decrease in Binding EC50 (Mut)/EC50 (WT) [4]: 1.9
- Fold Decrease in Binding EC50 (Mut)/EC50 (WT) [5]: 4.5
- Fold Decrease in Binding EC50 (Mut)/EC50 (WT) [6]: 568.0
- Fold Decrease in Binding EC50 (Mut)/EC50 (WT) [7]: 73.6
- Fold Decrease in Binding EC50 (Mut)/EC50 (WT) [8]: 1.7
- Fold Decrease in Binding EC50 (Mut)/EC50 (WT) [9]: 2.4
- Fold Decrease in Binding EC50 (Mut)/EC50 (WT) [10]: 0.8
- Fold Decrease in Binding EC50 (Mut)/EC50 (WT) [11]: 2.6
- Fold Decrease in Binding EC50 (Mut)/EC50 (WT) [12]: 1990.0
- Fold Decrease in Binding EC50 (Mut)/EC50 (WT) [13]: 2.7
- Fold Decrease in Binding EC50 (Mut)/EC50 (WT) [14]: 2210.0
- Fold Decrease in Binding EC50 (Mut)/EC50 (WT) [15]: 690.0
- Fold Decrease in Binding EC50 (Mut)/EC50 (WT) [16]: 1020.0
- Fold Decrease in Binding EC50 (Mut)/EC50 (WT) [17]: 72.2
- Fold Decrease in Binding EC50 (Mut)/EC50 (WT) [18]: 70.9
- Fold Decrease in Binding EC50 (Mut)/EC50 (WT) [19]: 1.0
- Fold Decrease in Binding EC50 (Mut)/EC50 (WT) [20]: 349.0
- Fold Decrease in Binding EC50 (Mut)/EC50 (WT) [21]: 0.9
- Fold Decrease in Binding EC50 (Mut)/EC50 (WT) [22]: 1.0
- Fold Decrease in Binding EC50 (Mut)/EC50 (WT) [23]: 488.0
- Fold Decrease in Binding EC50 (Mut)/EC50 (WT) (human BACE1 ECD WT): 1.0
- Fold Decrease in Binding EC50 (Mut)/EC50 (WT) [24]: 1.0
